Counter-ions that a name gives are not always drawn.
Tests used:
[1] = room temperature; crystals were indomethacin:lidocain 2:1; cited from earlier work
[2] = Form of the salt on standing / long-term preservation; assay type: physicochemical
Experimental: First, a salt was produced using equimolar amounts of a carboxylic acid NSAID and organic amine. […] The obtained ionic liquid or crystals and the like were left standing, confirmed to be stable, and then the forms thereof were observed. This has clarified that the salt produced by the combination of NSAID and an organic amine compound may be a liquid (viscous liquid) or crystal at ambient temperature (25° C.).

[3] = Skin permeability test using isolated rat abdominal skin (Franz-type diffusion cell); details: accumulated up to 6 hours, 2.5 wt % as NSAID free acid in diethyl sebacate/propylene glycol, 32° C.
Experimental: An equimolar salt of NSAID and organic amine was dissolved in a mixture of diethyl sebacate and propylene glycol to give a solution preparation. For comparison, a solution preparation (control) of NSAID was prepared in the same manner.
As a receptor solution, saline-ethanol solution (9:1, 8 ml) was placed in an upright Franz-type diffusion cell (effective diffusion area: 1 cm^2), and the solution was stirred and maintained at 32° C. An isolated abdominal shaved skin of 6-week-old Wistar rat was applied to the Franz cell, and the prepared solution preparation (0.15 ml) was applied to the skin. A part (300 μL) of the receptor solution was taken at predetermined time intervals, the drug concentration in the receptor solution was measured by high performance liquid chromatography, and the drug permeation amount per 1 cm^2 rat skin was calculated.
Unless otherwise indicated, in the following Experimental Examples, the drug concentration of the solution preparation is 2.5 wt % as NSAID free acid, and the skin permeation amount is an accumulated amount (μg/cm^2) up to 6 hours.

[4] = Solubility of NSAID-eperisone salt and NSAID free acid in diethyl sebacate; assay type: physicochemical; details: for dissolution in diethyl sebacate (50 g): 5 g NSAID free acid or ionic liquid corresponding to 5 g NSAID, shaken at room temperature for 30 min; for amount (g) of diethyl sebacate necessary for dissolving NSAID (1 g): NSAID free acid; for amount (g) of diethyl sebacate necessary for dissolving NSAID (1 g) / amount (g) of diethyl sebacate necessary for dissolving an eperisone salt corresponding to NSAID (1 g): room temperature
Experimental: The solubility of an eperisone salt of NSAID, and a free acid of NSAID in diethyl sebacate widely used for external preparations was measured. […] The solutions were stood still and, when an undissolved matter was found, diethyl sebacate was further added, and the mixture was shaken.

Molecule: CCN(CC)CC(=O)Nc1c(C)cccc1C.COc1ccc2c(c1)c(CC(=O)O)c(C)n2C(=O)c1ccc(Cl)cc1
- stability of the ionic liquid when stood still [1]: crystals were gradually precipitated

Molecule: CCN(CC)CC(=O)Nc1c(C)cccc1C.O=C(O)Cc1ccccc1Nc1c(Cl)cccc1Cl [diclofenac-lidocain salt]
- form/note: crystallization during long-term preservation [2]: partial

Molecule: Cc1ccc(C(=O)C(C)CN2CCCCC2)cc1.O=C(O)Cc1ccccc1Nc1c(Cl)cccc1Cl [diclofenac-tolperisone salt]
- diclofenac permeation amount [3]: 20.3 μg/cm^2

Molecule: COc1cccc(C2(O)CCCCC2CN(C)C)c1.O=C(O)Cc1ccccc1Nc1c(Cl)cccc1Cl (stereo not shown) [diclofenac-tramadol salt]
- form/note: crystallization during long-term preservation [2]: crystallized

Molecule: O=C(O)Cc1ccccc1Nc1c(Cl)cccc1Cl [diclofenac]
- diclofenac permeation amount [3]: 8.8 μg/cm^2
- dissolution in diethyl sebacate (50 g) [4]: not dissolved
- amount (g) of diethyl sebacate necessary for dissolving NSAID (1 g) [4]: not less than 100 g

Molecule: CCc1cccc2c3c([nH]c12)C(CC)(CC(=O)O)OCC3 (stereo not shown) [etodolac, reference compound]
- etodolac permeation amount [3]: 10.4 μg/cm^2
- amount (g) of diethyl sebacate necessary for dissolving NSAID (1 g) [4]: not more than 10 g

Molecule: CCc1ccc(C(=O)C(C)CN2CCCCC2)cc1.CCc1cccc2c3c([nH]c12)C(CC)(CC(=O)O)OCC3 (stereo not shown) [etodolac-eperisone salt]
- etodolac permeation amount [3]: 20.5 μg/cm^2
- amount (g) of diethyl sebacate necessary for dissolving an eperisone salt corresponding to NSAID (1 g) [4]: not more than 10 g

Molecule: CCc1cccc2c3c([nH]c12)C(CC)(CC(=O)O)OCC3.Cc1ccc(C(=O)C(C)CN2CCCCC2)cc1 (stereo not shown) [etodolac-tolperisone salt]
- etodolac permeation amount [3]: 22.3 μg/cm^2

Molecule: CC(C(=O)O)c1ccc(-c2ccccc2)c(F)c1 (stereo not shown) [flurbiprofen, reference compound]
- flurbiprofen permeation amount [3]: 20.2 μg/cm^2
- amount (g) of diethyl sebacate necessary for dissolving NSAID (1 g) [4]: not more than 10 g

Molecule: CC(C(=O)O)c1ccc(-c2ccccc2)c(F)c1.CC(O)CN(CC(C)O)CC(C)O (stereo not shown) [flurbiprofen-TIPA salt]
- flurbiprofen permeation amount [3]: 91.8 μg/cm^2

Molecule: CC(C(=O)O)c1ccc(-c2ccccc2)c(F)c1.CCc1ccc(C(=O)C(C)CN2CCCCC2)cc1 (stereo not shown) [flurbiprofen-eperisone salt]
- amount (g) of diethyl sebacate necessary for dissolving an eperisone salt corresponding to NSAID (1 g) [4]: not more than 10 g

Molecule: CC(C(=O)O)c1ccc(-c2ccccc2)c(F)c1.CCN(CC)CC(=O)Nc1c(C)cccc1C (stereo not shown) [flurbiprofen-lidocain salt]
- flurbiprofen permeation amount [3]: 91.0 μg/cm^2

Molecule: CC(C(=O)O)c1ccc(-c2ccccc2)c(F)c1.Cc1ccc(C(=O)C(C)CN2CCCCC2)cc1 (stereo not shown) [flurbiprofen-tolperisone salt]
- flurbiprofen permeation amount [3]: 46.3 μg/cm^2

Molecule: CC(C(=O)O)c1ccc(-c2ccccc2)c(F)c1.COc1cccc(C2(O)CCCCC2CN(C)C)c1 (stereo not shown) [flurbiprofen-tramadol salt]
- flurbiprofen permeation amount [3]: 78.1 μg/cm^2

Molecule: CC(O)CN(CC(C)O)CC(C)O.COc1ccc2c(c1)c(CC(=O)O)c(C)n2C(=O)c1ccc(Cl)cc1 [indomethacin-TIPA salt]
- indomethacin permeation amount [3]: 15.8 μg/cm^2

Molecule: CCc1ccc(C(=O)C(C)CN2CCCCC2)cc1.COc1ccc2c(c1)c(CC(=O)O)c(C)n2C(=O)c1ccc(Cl)cc1 [indomethacin-eperisone salt]
- amount (g) of diethyl sebacate necessary for dissolving an eperisone salt corresponding to NSAID (1 g) [4]: not more than 10 g

Molecule: COc1ccc2c(c1)c(CC(=O)O)c(C)n2C(=O)c1ccc(Cl)cc1.Cc1ccc(C(=O)C(C)CN2CCCCC2)cc1 [indomethacin-tolperisone salt]
- indomethacin permeation amount [3]: 14.7 μg/cm^2

Molecule: COc1ccc2c(c1)c(CC(=O)O)c(C)n2C(=O)c1ccc(Cl)cc1.COc1cccc(C2(O)CCCCC2CN(C)C)c1 [indomethacin-tramadol salt]
- indomethacin permeation amount [3]: 9.8 μg/cm^2

Molecule: COc1ccc2c(c1)c(CC(=O)O)c(C)n2C(=O)c1ccc(Cl)cc1 [indomethacin]
- indomethacin permeation amount [3]: 6.9 μg/cm^2
- dissolution in diethyl sebacate (50 g) [4]: not dissolved
- amount (g) of diethyl sebacate necessary for dissolving NSAID (1 g) [4]: not less than 100 g

Molecule: CC(C(=O)O)c1cccc(C(=O)c2ccccc2)c1 (stereo not shown) [ketoprofen, reference compound]
- Ketoprofen permeation amount [3]: 36.1 μg/cm^2

Molecule: CC(C(=O)O)c1ccc(CC2CCCC2=O)cc1 (stereo not shown) [loxoprofen sodium salt, reference compound]
- loxoprofen permeation amount ([3]; sodium salt): 27.1 μg/cm^2

Molecule: CC(C(=O)O)c1ccc(CC2CCCC2=O)cc1.CCCCN1CCCCC1C(=O)Nc1c(C)cccc1C (stereo not shown) [loxoprofen-bupivacaine salt]
- form/note: crystallization during long-term preservation [2]: partially

Molecule: CC(C(=O)O)c1ccc(CC2CCCC2=O)cc1.CCc1ccc(C(=O)C(C)CN2CCCCC2)cc1 (stereo not shown) [loxoprofen-eperisone salt]
- loxoprofen permeation amount [3]: 91.2 μg/cm^2
- amount (g) of diethyl sebacate necessary for dissolving an eperisone salt corresponding to NSAID (1 g) [4]: not more than 10 g

Molecule: CC(C(=O)O)c1ccc(CC2CCCC2=O)cc1.CCN(CC)CC(=O)Nc1c(C)cccc1C (stereo not shown) [loxoprofen-lidocain salt]
- loxoprofen permeation amount [3]: 103.4 μg/cm^2

Molecule: CC(C(=O)O)c1ccc(CC2CCCC2=O)cc1.Cc1ccc(C(=O)C(C)CN2CCCCC2)cc1 (stereo not shown) [loxoprofen-tolperisone salt]
- loxoprofen permeation amount [3]: 82.3 μg/cm^2

Molecule: CC(C(=O)O)c1ccc(CC2CCCC2=O)cc1 (stereo not shown) [loxoprofen]
- loxoprofen permeation amount ([3]; listed as loxoprofen free acid): 49.5 μg/cm^2
- dissolution in diethyl sebacate (50 g) [4]: not dissolved
- amount (g) of diethyl sebacate necessary for dissolving NSAID (1 g) [4]: not less than 100 g

Molecule: loxoprofen-DIPA salt
- loxoprofen permeation amount [3]: 68.6 μg/cm^2

From patent US20100029704A1, “SALT OF NONSTEROIDAL ANTI-INFLAMMATORY DRUG AND ORGANIC AMINE COMPOUND AND USE THEREOF” (priority 2007, published 2010)
